Here are results for 34 compounds from patent publication US20120252853A1, “Positive allosteric modulators of nicotinic acetylcholine receptor” (H. Lundbeck A/S, priority 2011, published 2012).

Broadly, the EC50 is the midpoint of the concentration-response curve. Read a low EC50 as higher potency in that assay.

human α7 receptor, sequence (P36544 23-502): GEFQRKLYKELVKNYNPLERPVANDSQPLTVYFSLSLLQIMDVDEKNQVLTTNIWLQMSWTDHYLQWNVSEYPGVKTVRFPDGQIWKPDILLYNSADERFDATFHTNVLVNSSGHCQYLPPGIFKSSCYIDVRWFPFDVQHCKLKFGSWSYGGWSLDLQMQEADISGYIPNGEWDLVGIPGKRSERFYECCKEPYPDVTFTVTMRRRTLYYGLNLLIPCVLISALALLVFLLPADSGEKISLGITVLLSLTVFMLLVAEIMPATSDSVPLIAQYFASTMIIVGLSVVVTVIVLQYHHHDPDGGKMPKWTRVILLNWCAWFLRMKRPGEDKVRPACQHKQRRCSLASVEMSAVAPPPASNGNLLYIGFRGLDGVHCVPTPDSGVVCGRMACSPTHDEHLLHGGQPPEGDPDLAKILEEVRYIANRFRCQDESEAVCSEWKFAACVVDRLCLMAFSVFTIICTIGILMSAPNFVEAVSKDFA

The test concerns the target human α7 receptor (Homo sapiens, UniProt P36544). In words: α7 NNR flux assay (FDSS Ca assay). Type of test: cell-based. The note with it: positive allosteric modulation; rat GH4C1 cell line stably expressing human α7; acetylcholine 20 μM; % modulation relative to PNU-120596 set to 100%. On the procedure:
In this version of the assay, the human α7 receptor is stably expressed in the rat GH4C1 cell line. The assay was used to identify positive allosteric modulators (PAMs) of the α7 receptor. Activation of the channel was measured by loading cells with the calcium-sensitive fluorescent dye Calcium-4 (Assay kit from Molecular Devices), and then measuring real-time changes in fluorescence upon treatment with test compounds.
The cell line ChanClone GH4C1-nAChRalpha7 from Genionics was seeded from frozen stock in 384-well plates in culture media 2-3 days before experiment to form an approximately 80% confluent layer on the day of experiment.
The cell culture were split into “22.5 cm×22.5 cm”-plates with approximately 100×10^3 cells/cm^2. After four days incubation in a humidified incubator at 37° C. and 5% CO2, it had grown to an 80-90% confluent layer, and the cells were harvested.
Two or three days before the experiment the cells were seeded in 384 well plates from Greiner bio-one (781946, CELLCOAT, Poly-D-Lysine, black, μClear).
The cells were seeded in 384 well plates with 30 μL/well (30000 cells/well) while stirring the cell suspension or otherwise preventing the cells from precipitating. The plates were incubated at room temperature for 30-45 minutes. The plates were placed in incubator for two days (37° C. and 5% CO2).
The loading buffer was 5% v/v Calcium-4 Kit and 2.5 mM Probenecid in assay buffer.
Culture media were removed from the cell plates and 20 μL loading buffer was added in each well. The cell plates were placed in trays and incubated 90 minutes in the incubator (37° C.). Thereafter the plates were incubated 30 minutes at room temperature, still protected from light. Now the cell plates were ready to run in the Functional Drug Screening System (FDSS) The assay buffer was HBSS with 20 mM HEPES, pH 7.4 and 3 mM CaCl2.
200 nL 10 mM compound solution in DMSO was diluted in 50 μL assay buffer. The final test concentrations in the cell plates were 20-10-5-2.5-1.25-0.625-0.312-0.156-0.078-0.039 μM. Assay buffer and 3 μM PNU-120596 were used for control:
The agonist acetylcholine was added to a final concentration of 20 μM (˜EC100). In the FDSS7000 the Ex480-Em540 was measured with 1 second intervals. The baseline was made of 5 frames before addition of test compounds, and 95 frames more were made before addition of acetylcholine. The measurement stopped 30 frames after the 2nd addition. Raw data for each well were collected as “the maximum fluorescence count” in the interval 100-131 seconds and as “the average fluorescence count” in the interval 96-100 seconds. The positive allosteric modulation in the 2nd addition was the enhancement of agonist response with test compound compared to agonist alone.
Results were calculated as % modulation of test compound compared to the reference PNU-120596 set to 100%.
`Cc1cc2cc(C(C)NC(=O)c3oncc3C)ccc2[nH]1` (racemic) [Compound 16, 4-methyl-N-[1-(2-methyl-1H-indol-5-yl)ethyl]isoxazole-5-carboxamide] returned an EC50 of 11 µM.
The value for `COc1cc(C(=O)NC(C)c2ccc3[nH]c(C)cc3c2)on1` (racemic) [Compound 18, 3-methoxy-N-[1-(2-methyl-1H-indol-5-yl)ethyl]isoxazole-5-carboxamide] was 6.7 µM; that for `Cc1cc(C(=O)NC(C)c2ccc3[nH]c(C)cc3c2)on1` (racemic) [Compound 33, 3-methyl-N-[1-(2-methyl-1H-indol-5-yl)ethyl]isoxazole-5-carboxamide] was 2.63 µM; that for `Cc1cc(C(=O)NC(C)c2ccc3[nH]c(C(F)(F)F)cc3c2)on1` (single isomer, unassigned) [Compound 97, 3-methyl-N-[1-[2-(trifluoromethyl)-1H-indol-5-yl]ethyl]isoxazole-5-carboxamide] was 5.2 µM.
The compound `Cc1cc2cc(CNC(=O)c3sc(C)nc3C)ccc2[nH]1` [Compound 2, 2,4-dimethyl-N-[(2-methyl-1H-indol-5-311)methyl]thiazole-5-carboxamide] gave an EC50 of 9.8 µM.
Next, `Cc1cc2cc(CNC(=O)c3ccc(Cl)s3)ccc2[nH]1` [Compound 3, 5-Chloro-thiophene-2-carboxylic acid (2-methyl-1H-indol-5-ylmethyl)-amide]: 0.13 µM; `Cc1cc2cc(CNC(=O)c3sccc3Cl)ccc2[nH]1` [Compound 4, 3-chloro-N-[(2-methyl-1H-indol-5-yl)methyl]thiophene-2-carboxamide]: 2.9 µM; `Cc1cc2cc(CNC(=O)c3cscn3)ccc2[nH]1` [Compound 5, N-[(2-methyl-1H-indol-5-yl)methyl]thiazole-4-carboxamide]: 4.4 µM.
The value for `Cc1cc2cc(CNC(=O)c3ccsc3)ccc2[nH]1` [Compound 6, N-[(2-methyl-1H-indol-5-yl)methyl]thiophene-3-carboxamide] was 0.52 µM.
The compound `Cc1cc2cc(CNC(=O)c3cc(C)oc3C)ccc2[nH]1` [Compound 7, 2,5-dimethyl-N-[(2-methyl-1H-indol-5-yl)methy]furan-3-carboxamide] had an EC50 of 1.4 µM.
In turn, `Cc1cc2cc(CNC(=O)c3cc(C)on3)ccc2[nH]1` [Compound 8, 5-methyl-N-[(2-methyl-1H-indol-5-yl)methyl]isoxazole-3-carboxamide] came in with an EC50 of 3.2 µM.
Consider `Cc1cc2cc(CNC(=O)c3sccc3C)ccc2[nH]1` [Compound 9, 3-methyl-N-[(2-methyl-1H-indol-5-yl)methyl]thiophene-2-carboxamide], for which the concentration giving a half-maximal response (EC50) was 1.8 µM.
As for `Cc1cc2cc(CNC(=O)c3ccco3)ccc2[nH]1` [Compound 10, N-[(2-methyl-1H-indol-5-yl)methyl]furan-2-carboxamide], a half-maximal effect (EC50) was put at 4 µM. This EC50 is about 2.2-fold higher than that of the compound before.
The compound `Cc1cc2cc(CNC(=O)c3ccoc3)ccc2[nH]1` [Compound 11, N-[(2-methyl-1H-indol-5-yl)methyl]furan-3-carboxamide] displayed an EC50 of 2.4 µM.
The value for `Cc1cc2cc(CNC(=O)c3cc(C)n(C)n3)ccc2[nH]1` [Compound 12, 1,5-dimethyl-N-[(2-methyl-1H-indol-5-yl)methyl]pyrazole-3-carboxamide] was 9.1 µM; that for `Cc1cc2cc(CNC(=O)c3cccs3)ccc2[nH]1` [Compound 13, N-[(2-methyl-1H-indol-5-yl)methyl]thiophene-2-carboxamide] was 0.53 µM.
The value for `Cc1cc2cc(CNC(=O)c3ccc[nH]3)ccc2[nH]1` [Compound 14, N-[(2-methyl-1H-indol-5-yl)methyl]-1H-pyrrole-2-carboxamide] was 7.4 µM.
Consider `Cc1cc2cc(CNC(=O)c3oncc3C)ccc2[nH]1` [Compound 15, 4-methyl-N-[(2-methyl-1H-indol-5-yl)methyl]isoxazole-5-carboxamide], for which the EC50 stood at 9.6 µM.
Next, `Cc1cc(C(=O)NCc2ccc3[nH]cc(C)c3c2)on1` [Compound 17, 3-methyl-N-[(3-methyl-1H-indol-5-34)methyl]isoxazole-5-carboxamide]: 11 µM; `COc1cc(C(=O)NCc2ccc3[nH]c(C)cc3c2)on1` [Compound 19, 3-methoxy-N-[(2-methyl-1H-indol-5-yl)methyl]isoxazole-5-carboxamide]: 4.6 µM.
Regarding `Cc1cc2cc(CNC(=O)c3nccs3)ccc2[nH]1` [Compound 20, N-[(2-methyl-1H-indol-5-yl)methyl]thiazole-2-carboxamide], it took 3.3 µM to reach a half-maximal effect (EC50).
Next, `Cc1cc2cc(CNC(=O)c3ocnc3C)ccc2[nH]1` [Compound 22, 4-methyl-N-[(2-methyl-1H-indol-5-yl)methyl]oxazole-5-carboxamide]: 7.2 µM; `Cc1cc(C(=O)NCc2cc(C)c3[nH]ccc3c2)on1` [Compound 23, 3-methyl-N-[(7-methyl-1H-indol-5-yl)methyl]isoxazole-5-carboxamide]: 7.1 µM; `Cc1cc2cc(CNC(=O)c3csc(C)n3)ccc2[nH]1` [Compound 25, 2-methyl-N-[(2-methyl-1H-indol-5-yl)methyl]thiazole-4-carboxamide]: 4.7 µM.
`Cc1cc2cc(CNC(=O)c3ccno3)ccc2[nH]1` [Compound 26, N-[(2-methyl-1H-indol-5-yl)methyl]isoxazole-5-carboxamide] had an EC50 of 7.37 µM.
Next, `Cc1cc2cc(CNC(=O)c3c(C)noc3C)ccc2[nH]1` [Compound 27, 3,5-dimethyl-N-[(2-methyl-1H-indol-5-yl)methyl]isoxazole-4-carboxamide]: 0.44 µM.
Next, `Cc1cc2cc(CNC(=O)c3cc(=O)n(C)[nH]3)ccc2[nH]1` [Compound 32, 2-methyl-N-[(2-methyl-1H-indol-5-yl)methyl]-3-oxo-1H-pyrazole-5-carboxamide]: 11 µM.
As to `Cc1cc2cc(CNC(=O)c3ccn(C)c3)ccc2[nH]1` [Compound 37, 1-methyl-N-[(2-methyl-1H-indol-5-yl)methyl]pyrrole-3-carboxamide], the EC50 was 9.8 µM.
The value for `Cc1cc(C(=O)NC(C)c2ccc3[nH]ccc3c2)on1` (stereo not shown) [Compound 38, N-[1-(1H-indol-5-yl)ethyl]-3-methyl-isoxazole-5-carboxamide] was 5.9 µM.
Turning to `Cc1cc(C(=O)NCc2cc3cc[nH]c3cc2C)on1` [Compound 39, 3-methyl-N-[(6-methyl-1H-indol-5-yl)methyl]isoxazole-5-carboxamide], the EC50 came to 9.1 µM.
The value for `Cc1cc(C(=O)NCc2ccc3[nH]c(C)c(C)c3c2)on1` [Compound 41, N-[(2,3-dimethyl-1H-indol-5-yl)methyl]-3-methyl-isoxazole-5-carboxamide] was 7.7 µM.
Consider `Cc1cc2cc([C@@H](C)NC(=O)c3cnc(C)s3)ccc2[nH]1` [Compound 42, 2-methyl-N-[(1R)-1-(2-methyl-1H-indol-5-yl)ethyl]thiazole-5-carboxamide], for which a half-maximal effect (EC50) was put at 5.6 µM.
Next, `CCn1cc(C(=O)N[C@H](C)c2ccc3[nH]c(C)cc3c2)cn1` [Compound 43, 1-ethyl-N-[(1R)-1-(2-methyl-1H-indol-5-yl)ethyl]pyrazole-4-carboxamide]: 2.2 µM; `Cc1cc2cc([C@@H](C)NC(=O)c3cnn(C)c3)ccc2[nH]1` [Compound 44, 1-methyl-N-[(1R)-1-(2-methyl-1H-indol-5-yl)ethyl]pyrazole-4-carboxamide]: 6.1 µM.
